Assay results taken from patent US20230085307A1, “PYRIDAZINONE COMPOUND AND HERBICIDE” (NISSAN CHEMICAL CORPORATION, priority 2019, published 2023).

Legend:
lambsquarters = assay: Test Example 4: herbicidal effect by soil treatment (Table 19, symbol O); assay type: in vivo, lambsquarters (Chenopodium album); details: amount of applied herbicide 320 g/ha
Outline: (§1)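 Herbicidal effect was rated 3 weeks after treatment, using the scoring criteria of an earlier test. The compound, formulated as an emulsion and diluted in water to a set herbicide amount, had been sprayed uniformly on soil over freshly sown seeds. Growth took place in a greenhouse at 25° C. to 30° C.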

windgrass [1] = assay: Test Example 4: herbicidal effect by soil treatment (Table 19, symbol L); assay type: in vivo, windgrass (Apera spica-venti); details: amount of applied herbicide 320 g/ha
Outline: as §1

persian speedwell [2] = assay: Test Example 5: herbicidal effect by foliage application, plastic box (Table 20, symbol R); assay type: in vivo, Persian speedwell (Veronica persica); details: 320 g/ha; for R: persian speedwell, herbicidal effect grade: foliage application, three weeks after application
Outline: (§2)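 Foliar spray test: emulsion formulation diluted in water to a set application rate, sprayed onto 14-day-old plants raised in diluvial soil at 25° C to 30° C under glass. Both herbicidal effect and crop effect rated visually three weeks later.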

barnyard grass [3] = assay: Test Example 3: herbicidal effect by foliage application, Wagner pot (Table 18, symbol H); assay type: in vivo, barnyard grass (Echinochloa crus-galli); details: 320 g/ha
Outline: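 Plants were sown in alluvial soil held under 0.1–0.5 cm standing water and grown 14 days in a greenhouse at 25–30 °C. An emulsifiable formulation, water-diluted to the set dose, was then sprayed onto the foliage, and effects were scored three weeks later using previously defined criteria.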

windgrass [4] = assay: Test Example 5: herbicidal effect by foliage application, plastic box (Table 20, symbol L); assay type: in vivo, windgrass (Apera spica-venti); details: 320 g/ha; for L: windgrass, herbicidal effect grade: foliage application, three weeks after application
Outline: as §2

redroot pigweed = assay: Test Example 5: herbicidal effect by foliage application, plastic box (Table 20, symbol N); assay type: in vivo, redroot pigweed (Amaranthus retroflexus); details: 320 g/ha; for N: redroot pigweed, herbicidal effect grade: foliage application, three weeks after application
Outline: as §2

late watergrass [5] = assay: Test Example 2: herbicidal activity, application during weed generation under submerged conditions (Table 17, symbol A); assay type: in vivo, late watergrass (Echinochloa oryzicola); details: AAH 320 g/ha; application during weed generation, submerged conditions
Outline: (§3)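 Steps: fill Wagner pots with alluvial soil; add water to give 4 cm depth; sow the species mixed; grow under glass at 25–30° C.; at 1–2 leaves apply water-diluted emulsion formulation to the water surface at a fixed herbicide amount; score after 3 weeks.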

barnyard grass [6] = assay: Test Example 4: herbicidal effect by soil treatment (Table 19, symbol H); assay type: in vivo, barnyard grass (Echinochloa crus-galli); details: amount of applied herbicide 320 g/ha
Outline: as §1

persian speedwell [7] = assay: Test Example 4: herbicidal effect by soil treatment (Table 19, symbol R); assay type: in vivo, Persian speedwell (Veronica persica); details: amount of applied herbicide 320 g/ha
Outline: as §1

chickweed [8] = assay: Test Example 4: herbicidal effect by soil treatment (Table 19, symbol P); assay type: in vivo, common chickweed (Stellaria media); details: amount of applied herbicide 320 g/ha
Outline: as §1

late watergrass [9] = assay: Test Example 1: herbicidal activity, application before weed generation under submerged conditions (Table 16, symbol A); assay type: in vivo, late watergrass (Echinochloa oryzicola); details: amount of applied herbicide 320 g/ha
Outline: (§4)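 Submerged Wagner pots (alluvial soil, 4 cm water) sown with weed seeds and planted with 2.5-leaf rice seedlings; emulsifiable concentrate diluted in water applied to water surface on sowing day. Held in greenhouse at 25-30 °C; injury scored 0-5 by herbicidal rate after three weeks.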

green foxtail = assay: Test Example 5: herbicidal effect by foliage application, plastic box (Table 20, symbol G); assay type: in vivo, green foxtail (Setaria viridis); details: 320 g/ha; for G: green foxtail, herbicidal effect grade: foliage application, three weeks after application
Outline: as §2

chickweed [10] = assay: Test Example 5: herbicidal effect by foliage application, plastic box (Table 20, symbol P); assay type: in vivo, common chickweed (Stellaria media); details: 320 g/ha; for P: chickweed, herbicidal effect grade: foliage application, three weeks after application
Outline: as §2

Japanese bulrush = assay: Test Example 1: herbicidal activity, application before weed generation under submerged conditions (Table 16, symbol B); assay type: in vivo, Japanese bulrush (Schoenoplectus juncoides); details: amount of applied herbicide 320 g/ha
Outline: as §4

velvetleaf = assay: Test Example 4: herbicidal effect by soil treatment (Table 19, symbol M); assay type: in vivo, velvetleaf (Abutilon theophrasti); details: amount of applied herbicide 320 g/ha
Outline: as §1

oval-leafed pondweed = assay: Test Example 2: herbicidal activity, application during weed generation under submerged conditions (Table 17, symbol C); assay type: in vivo, oval-leafed pondweed (Monochoria vaginalis); details: AAH 320 g/ha; application during weed generation, submerged conditions
Outline: as §3

Italian ryegrass = assay: Test Example 4: herbicidal effect by soil treatment (Table 19, symbol K); assay type: in vivo, Italian ryegrass (Lolium multiflorum); details: amount of applied herbicide 320 g/ha
Outline: as §1

[11] = foliage application after 14-day growth, evaluated three weeks after application

SMILES | herbicidal effect on barnyard grass (H) (barnyard grass [3]) | herbicidal effect rating, A: late watergrass (late watergrass [5]) | Herbicidal effect, A: late watergrass (late watergrass [9]) | Herbicidal effect, B: Japanese bulrush (Japanese bulrush) | herbicidal effect rating, C: oval-leafed pondweed (oval-leafed pondweed) | O: lambsquarters, herbicidal effect grade (lambsquarters) | L: windgrass, herbicidal effect grade (windgrass [1]) | R: persian speedwell, herbicidal effect grade (persian speedwell [2]) | L: windgrass, herbicidal effect grade (windgrass [4]) | N: redroot pigweed, herbicidal effect grade (redroot pigweed) | H: barnyard grass, herbicidal effect grade (barnyard grass [6]) | R: persian speedwell, herbicidal effect grade (persian speedwell [7]) | P: chickweed, herbicidal effect grade (chickweed [8]) | G: green foxtail, herbicidal effect grade (green foxtail) | P: chickweed, herbicidal effect grade (chickweed [10]) | M: velvetleaf, herbicidal effect grade (velvetleaf) | K: Italian ryegrass, herbicidal effect grade (Italian ryegrass) | other results
CCCC(=O)Oc1c(C)nn(C)c(=O)c1-c1c(-c2ccc(C#N)cc2)sc2c(Cl)cccc12 [4-032] | 4 (Herbicidal rate of 70% or more and less than 90%) | 0 (Herbicidal rate of 5% or less (almost no effect)) | 0 (Herbicidal rate of 5% or less (almost no effect)) | 2 (Herbicidal rate of 20% or more and less than 40%) | 0 (Herbicidal rate of 5% or less (almost no effect)) | – | – | – | – | – | – | – | – | – | – | – | – | Herbicidal effect by soil treatment, O: lambsquarters (lambsquarters): 0 (Herbicidal rate of 5% or less (almost no effect)); Herbicidal effect by soil treatment, L: windgrass (windgrass [1]): 0 (Herbicidal rate of 5% or less (almost no effect)); herbicidal effect on R: persian speedwell (evaluation grade 0-5) (persian speedwell [2]; [11]): 5 (Herbicidal rate of 90% or more (almost completely withered)); herbicidal effect on L: windgrass (evaluation grade 0-5) (windgrass [4]; [11]): 4 (Herbicidal rate of 70% or more and less than 90%); herbicidal effect on N: redroot pigweed (evaluation grade 0-5) (redroot pigweed; [11]): 5 (Herbicidal rate of 90% or more (almost completely withered)); Herbicidal effect by soil treatment, H: barnyard grass (barnyard grass [6]): 0 (Herbicidal rate of 5% or less (almost no effect)); Herbicidal effect by soil treatment, R: persian speedwell (persian speedwell [7]): 3 (Herbicidal rate of 40% or more and less than 70%); Herbicidal effect by soil treatment, P: chickweed (chickweed [8]): 3 (Herbicidal rate of 40% or more and less than 70%); herbicidal effect on G: green foxtail (evaluation grade 0-5) (green foxtail; [11]): 0 (Herbicidal rate of 5% or less (almost no effect)); herbicidal effect on P: chickweed (evaluation grade 0-5) (chickweed [10]; [11]): 5 (Herbicidal rate of 90% or more (almost completely withered)); Herbicidal effect by soil treatment, M: velvetleaf (velvetleaf): 0 (Herbicidal rate of 5% or less (almost no effect)); Herbicidal effect by soil treatment, K: Italian ryegrass (Italian ryegrass): 0 (Herbicidal rate of 5% or less (almost no effect))
CCCC(=O)Oc1c(C)nn(C)c(=O)c1-c1c(-c2ccc(F)cc2OC)sc2cc(OC)ccc12 [3-077] | 5 (Herbicidal rate of 90% or more (almost completely withered)) | 2 (Herbicidal rate of 20% or more and less than 40%) | 5 (Herbicidal rate of 90% or more (almost completely withered)) | 5 (Herbicidal rate of 90% or more (almost completely withered)) | 4 (Herbicidal rate of 70% or more and less than 90%) | 4 (Herbicidal rate of 70% or more and less than 90%) | 3 (Herbicidal rate of 40% or more and less than 70%) | 3 (Herbicidal rate of 40% or more and less than 70%) | 4 (Herbicidal rate of 70% or more and less than 90%) | 3 (Herbicidal rate of 40% or more and less than 70%) | 3 (Herbicidal rate of 40% or more and less than 70%) | 4 (Herbicidal rate of 70% or more and less than 90%) | 4 (Herbicidal rate of 70% or more and less than 90%) | 5 (Herbicidal rate of 90% or more (almost completely withered)) | 5 (Herbicidal rate of 90% or more (almost completely withered)) | 0 (Herbicidal rate of 5% or less (almost no effect)) | 3 (Herbicidal rate of 40% or more and less than 70%) | –
COc1ccccc1-c1sc2cc(OCC(C)C)ccc2c1-c1c(O)c(C)nn(C)c1=O [3-107] | 4 (Herbicidal rate of 70% or more and less than 90%) | 3 (Herbicidal rate of 40% or more and less than 70%) | 4 (Herbicidal rate of 70% or more and less than 90%) | 5 (Herbicidal rate of 90% or more (almost completely withered)) | 5 (Herbicidal rate of 90% or more (almost completely withered)) | 5 (Herbicidal rate of 90% or more (almost completely withered)) | 0 (Herbicidal rate of 5% or less (almost no effect)) | 5 (Herbicidal rate of 90% or more (almost completely withered)) | 5 (Herbicidal rate of 90% or more (almost completely withered)) | 5 (Herbicidal rate of 90% or more (almost completely withered)) | 3 (Herbicidal rate of 40% or more and less than 70%) | 4 (Herbicidal rate of 70% or more and less than 90%) | 1 (Herbicidal rate of 5% or more and less than 20%) | 5 (Herbicidal rate of 90% or more (almost completely withered)) | 5 (Herbicidal rate of 90% or more (almost completely withered)) | 1 (Herbicidal rate of 5% or more and less than 20%) | 5 (Herbicidal rate of 90% or more (almost completely withered)) | –
CCOc1ccc(-c2sc3cc(OC)ccc3c2-c2c(O)c(C)nn(C)c2=O)cc1 [3-072] | 4 (Herbicidal rate of 70% or more and less than 90%) | 3 (Herbicidal rate of 40% or more and less than 70%) | 1 (Herbicidal rate of 5% or more and less than 20%) | 5 (Herbicidal rate of 90% or more (almost completely withered)) | 3 (Herbicidal rate of 40% or more and less than 70%) | 2 (Herbicidal rate of 20% or more and less than 40%) | 0 (Herbicidal rate of 5% or less (almost no effect)) | 5 (Herbicidal rate of 90% or more (almost completely withered)) | 0 (Herbicidal rate of 5% or less (almost no effect)) | 5 (Herbicidal rate of 90% or more (almost completely withered)) | 0 (Herbicidal rate of 5% or less (almost no effect)) | 5 (Herbicidal rate of 90% or more (almost completely withered)) | 5 (Herbicidal rate of 90% or more (almost completely withered)) | 3 (Herbicidal rate of 40% or more and less than 70%) | 5 (Herbicidal rate of 90% or more (almost completely withered)) | 0 (Herbicidal rate of 5% or less (almost no effect)) | 0 (Herbicidal rate of 5% or less (almost no effect)) | –
